{"source": "ChEMBL document CHEMBL1909046", "about": "“DrugMatrix in vitro pharmacology data”", "key": {"[1]": {"molecular_target": "Cytochrome P450 2D6 (Homo sapiens, UniProt P10635)", "sequence (P10635 whole entry)": "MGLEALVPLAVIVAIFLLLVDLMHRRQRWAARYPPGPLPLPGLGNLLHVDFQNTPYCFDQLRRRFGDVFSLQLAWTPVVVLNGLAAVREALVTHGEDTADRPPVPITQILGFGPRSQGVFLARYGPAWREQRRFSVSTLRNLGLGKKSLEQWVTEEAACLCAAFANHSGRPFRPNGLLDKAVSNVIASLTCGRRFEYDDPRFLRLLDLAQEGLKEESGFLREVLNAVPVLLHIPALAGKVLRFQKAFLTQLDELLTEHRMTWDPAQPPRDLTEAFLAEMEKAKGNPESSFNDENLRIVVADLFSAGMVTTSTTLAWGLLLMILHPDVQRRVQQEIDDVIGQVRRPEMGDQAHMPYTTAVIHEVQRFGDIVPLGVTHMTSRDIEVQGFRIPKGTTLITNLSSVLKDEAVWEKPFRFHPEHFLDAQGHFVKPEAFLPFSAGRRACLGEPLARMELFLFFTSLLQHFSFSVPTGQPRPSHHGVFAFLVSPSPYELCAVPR"}, "[2]": {"molecular_target": "T1, Cytochrome P450 1A2 (Homo sapiens, UniProt P05177)", "T1 sequence (P05177 whole entry)": "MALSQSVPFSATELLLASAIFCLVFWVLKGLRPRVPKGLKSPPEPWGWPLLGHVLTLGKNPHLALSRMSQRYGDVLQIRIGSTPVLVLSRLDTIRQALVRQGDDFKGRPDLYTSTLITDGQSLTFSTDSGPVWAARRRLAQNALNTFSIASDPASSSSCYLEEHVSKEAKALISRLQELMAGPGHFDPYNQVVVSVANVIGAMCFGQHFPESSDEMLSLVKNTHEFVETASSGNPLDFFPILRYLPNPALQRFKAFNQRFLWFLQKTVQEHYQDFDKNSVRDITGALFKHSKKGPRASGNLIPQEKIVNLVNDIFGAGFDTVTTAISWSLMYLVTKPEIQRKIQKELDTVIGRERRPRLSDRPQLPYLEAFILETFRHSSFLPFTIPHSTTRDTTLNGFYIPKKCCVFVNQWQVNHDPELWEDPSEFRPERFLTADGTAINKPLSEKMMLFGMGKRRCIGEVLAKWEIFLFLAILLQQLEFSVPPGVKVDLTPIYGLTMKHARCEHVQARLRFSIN"}}, "data": [{"smiles": "Clc1ccc2c(c1)C(N1CCNCC1)=Nc1ccccc1O2", "note": "[AMOXAPINE]", "values": [{"measurement": "IC50", "setting": "[1]", "result": 10, "unit": "µM"}]}, {"smiles": "CC(C)NCC(O)COc1cccc2ccccc12", "note": "(configuration not stated) [PROPRANOLOL]", "values": [{"measurement": "IC50", "setting": "[2]", "result": 4, "unit": "µM"}]}]}
